From the NIST ThermoML archive (doi:10.1021/je200790q)

Assays:
[1] = refractive index (Na D-line) (dimensionless); settings: 101.33 kPa, Liquid, Standard Abbe refractometry
[2] = 101.33 kPa, Liquid; for mass density: Vibrating tube method
[3] = molar heat capacity at constant pressure; settings: 298.15 K; 101.33 kPa; Liquid; Drop calorimetry

CCn1cc[n+](C)c1.Cc1ccc(S(=O)(=O)[O-])cc1 [1-ethyl-3-methylimidazolium 4-methylbenzenesulfonate]
Settings | mass density, [2] [kg/m3] | refractive index, [1] | viscosity, [2] [mPa·s]
303.15 K | 1223.4 | – | 1417.4
308.15 K | 1220 | – | 842.45
313.15 K | 1216.6 | – | 531.73
318.15 K | 1213.2 | – | 351.97
322.73 K | – | 1.53844 | –
323.15 K | 1210 | – | 242.85
325.68 K | – | 1.53757 | –
327.64 K | – | 1.53703 | –
328.15 K | 1206.8 | – | 173.69
329.61 K | – | 1.53649 | –
332.55 K | – | 1.5357 | –
333.15 K | 1203.7 | – | 128.18
334.52 K | – | 1.53509 | –
336.48 K | – | 1.53461 | –
338.15 K | 1200.6 | – | 97.21
338.44 K | – | 1.53409 | –
340.41 K | – | 1.53356 | –
342.37 K | – | 1.53304 | –
343.15 K | 1197.6 | – | 75.51
348.15 K | 1194.5 | – | 59.9
353.15 K | 1191.5 | – | 48.42
358.15 K | 1188.5 | – | 39.81
363.15 K | 1185.5 | – | 33.22

CC(=O)[O-].CCn1cc[n+](C)c1 [1-ethyl-3-methylimidazolium acetate]
Settings | mass density, [2] [kg/m3] | refractive index, [1] | viscosity, [2] [mPa·s]
278.15 K | 1112.4 | – | 723.62
283.15 K | 1108.9 | – | 451.35
288.15 K | 1105.6 | – | 295.7
288.37 K | – | 1.50371 | –
293.15 K | 1102.4 | – | 202.29
293.28 K | – | 1.50233 | –
298.15 K | 1099.3 | – | 143.61
298.19 K | – | 1.50091 | –
303.1 K | – | 1.49949 | –
303.15 K | 1096.2 | – | 105.3
308.01 K | – | 1.49807 | –
308.15 K | 1093.6 | – | 79.32
312.91 K | – | 1.49666 | –
313.15 K | 1090 | – | 61.33
318.15 K | 1087 | – | 48.41
323.15 K | 1084 | – | 38.95
328.15 K | 1081 | – | 31.87
333.15 K | 1078 | – | 26.47
338.15 K | 1075 | – | 22.27
343.15 K | 1072.1 | – | 18.96
348.15 K | 1069.2 | – | 16.31
353.15 K | 1066.3 | – | 14.16
358.15 K | 1063.4 | – | 12.41
363.15 K | 1060.6 | – | 10.95

Settings | molar heat capacity at constant pressure [J/K/mol]
[3] | 321.9

CCn1cc[n+](C)c1.N#CN=C=[N-] [1-ethyl-3-methylimidazolium dicyanamide]
Settings | mass density, [2] [kg/m3] | refractive index, [1] | viscosity, [2] [mPa·s]
278.15 K | 1117.9 | – | 32.51
283.15 K | 1114.3 | – | 26.67
288.15 K | 1110.9 | – | 22.23
288.37 K | – | 1.51745 | –
293.15 K | 1107.4 | – | 18.79
293.28 K | – | 1.51585 | –
298.15 K | 1104 | – | 16.09
298.19 K | – | 1.51428 | –
303.1 K | – | 1.51269 | –
303.15 K | 1100.6 | – | 13.92
308.01 K | – | 1.51112 | –
308.15 K | 1097.3 | – | 12.16
312.91 K | – | 1.50956 | –
313.15 K | 1094 | – | 10.72
318.15 K | 1090.7 | – | 9.519
323.15 K | 1087.4 | – | 8.518
328.15 K | 1084.2 | – | 7.673
333.15 K | 1081 | – | 6.951
338.15 K | 1077.8 | – | 6.327
343.15 K | 1074.7 | – | 5.788
348.15 K | 1071.6 | – | 5.319
353.15 K | 1068.5 | – | 4.909
358.15 K | 1065.4 | – | 4.548
363.15 K | 1062.3 | – | 4.229

Settings | molar heat capacity at constant pressure [J/K/mol]
[3] | 314.63

CCn1cc[n+](C)c1.COP(=O)([O-])OC [1-ethyl-3-methylimidazolium dimethylphosphate]
Settings | mass density, [2] [kg/m3] | refractive index, [1] | viscosity, [2] [mPa·s]
298.19 K | – | 1.48175 | –
303.1 K | – | 1.4805 | –
303.15 K | 1213.9 | – | 192.68
308.01 K | – | 1.47909 | –
308.15 K | 1210.5 | – | 144.32
312.91 K | – | 1.47771 | –
313.15 K | 1207.1 | – | 110.51
317.82 K | – | 1.47636 | –
318.15 K | 1203.8 | – | 86.32
322.73 K | – | 1.47511 | –
323.15 K | 1200.5 | – | 68.64
327.64 K | – | 1.47384 | –
328.15 K | 1197.2 | – | 55.46
333.15 K | 1193.9 | – | 45.47
338.15 K | 1190.6 | – | 37.78
343.15 K | 1187.4 | – | 31.76
348.15 K | 1184.2 | – | 26.99
353.15 K | 1181 | – | 23.17
358.15 K | 1177.8 | – | 20.07
363.15 K | 1174.7 | – | 17.53

Settings | molar heat capacity at constant pressure [J/K/mol]
[3] | 411.78
